Laboratory results from ChEMBL document CHEMBL3792309, “Seeking potent anti-tubercular agents: Design, synthesis, anti-tubercular activity and docking study of various ((triazoles/indole)-piperazin-1-yl/1,4-diazepan-1-yl)benzo[d]isoxazole derivatives” (Bioorg Med Chem Lett, 2016).
In brackets after ≈: the same amount, converted by molar mass.

How the values were obtained:
[1] = Cytotoxicity against mouse RAW264.7 cells assessed as inhibition of cell viability at 96.13 uM after 72 hrs by CellTiter 96 non radioactive cell proliferation assay; assay type: cell-based
[2] = system: Mycobacterium tuberculosis; experiment: Antimicrobial activity against Mycobacterium tuberculosis H37Rv by classical test tube method; assay type: functional
[3] = Selectivity index, ratio of IC50 for mouse RAW264.7 cells to MIC for Mycobacterium tuberculosis H37Rv; assay type: toxicity; conditions: read-out: Selectivity Index
[4] = system: RAW264.7; experiment: Cytotoxicity against mouse RAW264.7 cells assessed as inhibition of cell viability after 72 hrs by CellTiter 96 non radioactive cell proliferation assay; assay type: cell-based; conditions: RAW264.7, 72 h
[5] = system: Mycobacterium tuberculosis; experiment: Antimicrobial activity against p-aminosalicylic acid/isonicotinic acid hydrazide/etambutol/rifampicin sensitive Mycobacterium tuberculosis Spec. 192 by classical test tube method; assay type: functional
[6] = Cytotoxicity against mouse RAW264.7 cells assessed as inhibition of cell viability at 116.78 uM after 72 hrs by CellTiter 96 non radioactive cell proliferation assay; assay type: cell-based
[7] = Cytotoxicity against mouse RAW264.7 cells assessed as inhibition of cell viability at 98.8 uM after 72 hrs by CellTiter 96 non radioactive cell proliferation assay; assay type: cell-based
[8] = Cytotoxicity against mouse RAW264.7 cells assessed as inhibition of cell viability at 113.07 uM after 72 hrs by CellTiter 96 non radioactive cell proliferation assay; assay type: cell-based
[9] = system: Mycobacterium tuberculosis; experiment: Antimicrobial activity against Mycobacterium tuberculosis H37Rv assessed as growth inhibition at 257.59 uM by classical test tube method; assay type: functional; conditions: read-out: GI

| Structure (SMILES) | MIC [2] | MIC [5] | other results |
| --- | --- | --- | --- |
| FC(F)(F)c1cc(-n2cc(CN3CCCN(c4noc5ccccc45)CC3)nn2)ccc1Br | 24 µM (≈ 12.5 µg/mL) | 24 µM (≈ 12.5 µg/mL) | inhibition at 72 h, 96.13 µM [1]: 26.5%; selectivity ratio [3]: 7.54; IC50 [4]: 181 µM |
| O=C(CCCc1c[nH]c2ccccc12)N1CCCN(c2noc3ccccc23)CC1 | > 200 µM | > 200 µM |  |
| O=C(Cc1c[nH]c2ccccc12)N1CCN(c2noc3ccccc23)CC1 | > 200 µM | > 200 µM |  |
| COc1cccc(-n2cc(CN3CCCN(c4noc5ccccc45)CC3)nn2)c1 | > 200 µM | > 200 µM |  |
| O=[N+]([O-])c1ccc(-n2cc(CN3CCN(c4noc5ccccc45)CC3)nn2)cc1 | > 200 µM | > 200 µM |  |
| COc1cccc(-n2cc(CN3CCN(c4noc5ccccc45)CC3)nn2)c1 | 128 µM (≈ 50 µg/mL) | 128 µM (≈ 50 µg/mL) |  |
| C#CCN1CCCN(c2noc3ccccc23)CC1 | 196 µM (≈ 50 µg/mL) | 196 µM (≈ 50 µg/mL) |  |
| Brc1ccc(-n2cc(CN3CCN(c4noc5ccccc45)CC3)nn2)cc1 | > 200 µM | > 200 µM |  |
| C#CCN1CCN(c2noc3ccccc23)CC1 | > 200 µM | > 200 µM |  |
| FC(F)(F)c1cccc(-n2cc(CN3CCN(c4noc5ccccc45)CC3)nn2)c1 | 29.2 µM (≈ 12.5 µg/mL) | 29.2 µM (≈ 12.5 µg/mL) | selectivity ratio [3]: 10.4; IC50 [4]: 305 µM; inhibition at 72 h, 116.78 µM [6]: 19.2% |
| O=C(Cc1c[nH]c2ccccc12)N1CCCN(c2noc3ccccc23)CC1 | 134 µM (≈ 50 µg/mL) | 134 µM (≈ 50 µg/mL) |  |
| Clc1ccc(-n2cc(CN3CCN(c4noc5cc(Cl)ccc45)CC3)nn2)cc1 | > 200 µM | > 200 µM |  |
| O=C(CCCc1c[nH]c2ccccc12)N1CCN(c2noc3cc(Cl)ccc23)CC1 | > 200 µM | > 200 µM |  |
| O=C(CCCc1c[nH]c2ccccc12)N1CCN(c2noc3ccccc23)CC1 | > 200 µM | > 200 µM |  |
| COc1ccc(-n2cc(CN3CCCN(c4noc5ccccc45)CC3)nn2)cc1 | > 200 µM | > 200 µM |  |
| O=C(CCc1c[nH]c2ccccc12)N1CCCN(c2noc3ccccc23)CC1 | > 200 µM | > 200 µM |  |
| CCc1ccc(-n2cc(CN3CCCN(c4noc5ccccc45)CC3)nn2)cc1 | > 200 µM | > 200 µM |  |
| Fc1ccc(-n2cc(CN3CCN(c4noc5ccccc45)CC3)nn2)cc1 | 132 µM (≈ 50 µg/mL) | 132 µM (≈ 50 µg/mL) |  |
| Clc1ccc2c(N3CCN(Cc4cn(-c5ccc(Br)cc5)nn4)CC3)noc2c1 | > 200 µM | > 200 µM |  |
| Brc1ccc(-n2cc(CN3CCCN(c4noc5ccccc45)CC3)nn2)cc1 | > 200 µM | > 200 µM |  |

| Structure (SMILES) | MIC [2] | MIC [5] | other results |
| --- | --- | --- | --- |
| FC(F)(F)c1cc(-n2cc(CN3CCN(c4noc5ccccc45)CC3)nn2)ccc1Br | 6.16 µM (≈ 3.13 µg/mL) | 6.16 µM (≈ 3.13 µg/mL) | inhibition at 72 h, 98.8 µM [7]: 22.2%; selectivity ratio [3]: 36.1; IC50 [4]: 223 µM |
| O=C(Cc1c[nH]c2ccccc12)N1CCN(c2noc3cc(Cl)ccc23)CC1 | 127 µM (≈ 50.1 µg/mL) | 127 µM (≈ 50.1 µg/mL) |  |
| COc1ccc(-n2cc(CN3CCN(c4noc5ccccc45)CC3)nn2)cc1 | > 200 µM | > 200 µM |  |
| Clc1ccc(-n2cc(CN3CCCN(c4noc5ccccc45)CC3)nn2)cc1 | > 200 µM | > 200 µM |  |
| O=[N+]([O-])c1ccc(-n2cc(CN3CCCN(c4noc5ccccc45)CC3)nn2)cc1 | > 200 µM | > 200 µM |  |
| FC(F)(F)c1cccc(-n2cc(CN3CCCN(c4noc5ccccc45)CC3)nn2)c1 | 28.3 µM (≈ 12.5 µg/mL) | 28.3 µM (≈ 12.5 µg/mL) | selectivity ratio [3]: 6.29; IC50 [4]: 178 µM; inhibition at 72 h, 113.07 µM [8]: 31.8% |
| O=[N+]([O-])c1ccc(-n2cc(CN3CCN(c4noc5cc(Cl)ccc45)CC3)nn2)cc1 | > 200 µM | > 200 µM |  |
| Clc1cccc(-n2cc(CN3CCCN(c4noc5ccccc45)CC3)nn2)c1 | 122 µM (≈ 50.1 µg/mL) | 122 µM (≈ 50.1 µg/mL) |  |
| CCc1ccc(-n2cc(CN3CCN(c4noc5cc(Cl)ccc45)CC3)nn2)cc1 | > 200 µM | > 200 µM |  |
| Clc1cccc(-n2cc(CN3CCN(c4noc5ccccc45)CC3)nn2)c1 | 63.4 µM (≈ 25 µg/mL) | 63.4 µM (≈ 25 µg/mL) |  |
| COc1ccc(-n2cc(CN3CCN(c4noc5cc(Cl)ccc45)CC3)nn2)cc1 | 118 µM (≈ 50.1 µg/mL) | 118 µM (≈ 50.1 µg/mL) |  |
| O=C(CCc1c[nH]c2ccccc12)N1CCN(c2noc3cc(Cl)ccc23)CC1 | > 200 µM | > 200 µM |  |
| O=C(CCc1c[nH]c2ccccc12)N1CCN(c2noc3ccccc23)CC1 | > 200 µM | > 200 µM |  |
| Clc1ccc(-n2cc(CN3CCN(c4noc5ccccc45)CC3)nn2)cc1 | > 200 µM | > 200 µM |  |
| CCc1ccc(-n2cc(CN3CCN(c4noc5ccccc45)CC3)nn2)cc1 | > 200 µM | > 200 µM | inhibition of growth at 257.59 µM [9]: 99% |
| Fc1ccc(-n2cc(CN3CCCN(c4noc5ccccc45)CC3)nn2)cc1 | 127 µM (≈ 50 µg/mL) | 127 µM (≈ 50 µg/mL) |  |
| Fc1ccc(-n2cc(CN3CCN(c4noc5cc(Cl)ccc45)CC3)nn2)cc1 | 121 µM (≈ 50.1 µg/mL) | 121 µM (≈ 50.1 µg/mL) |  |
| C#CCN1CCN(c2noc3cc(Cl)ccc23)CC1 | 182 µM (≈ 50.1 µg/mL) | 182 µM (≈ 50.1 µg/mL) |  |
| NNC(=O)c1ccncc1 [ISONIAZID] | 91.1 µM (≈ 12.5 µg/mL) | 91.1 µM (≈ 12.5 µg/mL) |  |
